{"source": "patent US8193225B2", "about": "“Isoxazole amides, derivatives and methods of chemical induction of neurogenesis” (priority 2006, dated 2012)", "key": {"[1]": {"tested_on": "human CD133(+) brain tumor stem cells (BTSCs)", "assay": "differentiation of CD133+ brain tumor stem cells (BTSCs)", "type": "cell-based", "details": "20 μM, within 4 days", "method": "CD133+ glioblastoma brain tumor stem cells (BTSCs) from an explanted human tumor specimen were treated with 20 μM Isx-9 (FIG. 9C) or vol/vol DMSO (vehicle) control (FIG. 9B)."}, "[2]": {"tested_on": "human CD133(+) brain tumor stem cells (BTSCs)", "assay": "growth, secondary neurospheres and BrdU uptake of BTSCs", "type": "cell-based", "method": "CD133(+) brain tumor stem cells (BTSCs) from an explanted human tumor specimen were treated with EGF/FGF (FIG. 10A) or Isx-9 (20 μM) (FIG. 10B) for 7 days before returning to EGF/FGF (FIG. 10C) or EGF/FGF plus Isx-9 conditions (FIG. 10D) for an additional 2 days.\nThe number and size of neurospheres observed in 7-day pretreated BTSCs with DMSO (vehicle), EGF/FGF, or Isx-9 that were dissociated and re-plated to form secondary neurospheres (1000 cells/well) under various conditions is shown in FIG. 10F."}, "MEF2": {"tested_on": "MEF2", "assay": "gel shift assay of MEF2 binding to MEF2 response element of NR1 gene", "type": "cell-based, rat", "details": "versus vehicle-treated cells", "method": "Protein blotting, immunoprecipitation, and gel shift assay. For protein blotting analysis, whole cell lysates were prepared from HCN cells using RIPA buffer (Tris-HCl, 50 mM, pH 7.4; NP-40, 1%; Na-deoxycholate, 0.25%; NaCl, 150 mM; EDTA, 1 mM; PMSF, 1 mM; aprotinin, leupeptin, pepstatin, 1 mg/ml; Na3VO4, 1 mM; NaF, 1 mM). For nuclear and cytoplasmic extracts, HCNs were lysed in hypotonic buffer (Hepes, 10 mM, pH 8; MgCl2, 1.5 mM; KCl, 10 mM; DTT, 1 mM). Nuclei was then isolated and resuspended in the same buffer with NaCl, 420 mM; EDTA, 0.2 mM; glycerol, 25%; NP-40, 1%; PMSF, 1 mM; aprotinin, leupeptin, pepstatin, 1 mg/ml. Protein concentration in centrifugation-clarified cell lysates were measured by the BCA Protein Assay Kit (Pierce) and equal amounts of protein were separated on a 4-12% SDS-PAGE and transferred to Hybond PVDF (Amersham Biosciences). Protein blots were done using the NuPage gel and transfer system with 4-20% Tris-Bis gels (Invitrogen). […]"}}, "note": "“Also recorded” adds a separate entry of the source."}
{"smiles": "O=C(NC1CC1)c1cc(-c2cccs2)on1", "note": "[Isx-9, N-cyclopropyl-5-(thiophen-2-yl)isoxazole-3-carboxamide]", "values": [{"measurement": "neuronal differentiation of BTSCs", "setting": "[1]", "value": "triggers a pro neuronal-differentiation effect; also recorded: leads to more differentiated (adherent and phase-dark with neuronal-like processes) cells"}, {"measurement": "cell attachment and differentiation of BTSCs after growth factor challenge", "setting": "[2]; 7-day exposure, 20 μM", "value": "promotes an irreversible state of cell attachment and differentiation"}, {"measurement": "number and size of secondary neurospheres", "setting": "[2]; 7-day pre-treatment, compared to EGF/FGF pre-treatment", "value": "mediates a decrease in the average number and size of each secondary neurosphere"}, {"measurement": "DNA synthesis/proliferation (BrdU uptake) of BTSCs", "setting": "[2]; 7 days pre-treatment, EGF/FGF added back for 24 hours", "value": "leads to decreased DNA synthesis/proliferation"}, {"measurement": "total MEF2 binding to MEF2 response element within the NR1 gene", "setting": "MEF2", "value": "similar"}]}
